Test results taken from patent US20220347190A1, “TREATMENT COMPRISING FXR AGONISTS” (Novartis AG, priority 2019, published 2022).
Entries after “also recorded” stand apart in the source; their conditions may differ. Where two headings read alike, the source gives them in different places.

Columns and labels:
[1] = tested on: C57BL/6J mice on HF/NASH diet; test: Drug treatment study in mice on HF/NASH diet (Example 1); type: in vivo
Method: Studies were performed in compliance with Swiss guidelines for animal experimentation. Adult male C57BLJ6J mice were housed with ad libitum access to water and food. Mice were fed a HF/NASH diet (40 kcal % fat, 2% cholesterol, 40 kcal % carbohydrate, Research Diets, D09100301 or SSniff Special Diets, supplemented with a fructose-sucrose solution (42 g/L, 55% fructose and 45% sucrose by weight) in drinking water).
Total body fat and lean mass were analyzed by a nuclear magnetic resonance (NMR) and liver fat was measured by magnetic resonance imaging (MRI). […] Dietary intervention studies: mice fed a HF/NASH diet for 8 weeks were switched to normal diet (ND and water) for 12 weeks.
Drug treatment studies: mice exposed to HF/NASH diet for 20 weeks were treatment with LJP305 (1 mg/kg), GS-0976 (10 mg/kg) or vehicle (0.5% methylcellulose, 0.5% Tween 80 in water) p.o. once daily for 12 weeks while remaining on HF/NASH diet. At the end of the studies, blood and tissue samples were collected for analyses.
Liver samples were analyzed for collagen (Quickzyme), lipids and triglycerides (Cayman). Relative gene expression was calculated by normalizing Ct values of genes of interest against 18s (liver) or Idh3b (fat, ileum). Serum TIMP-1 (R&D Systems Inc.), PIII-NP (N-terminal procollagen III propeptide) (Cusabio Biotech Co.), α-fetoprotein (R&D Systems Inc.), leptin, and adiponectin (Meso Scale Discovery) were measured.
Paraffin-embedded tissue was stained with hematoxylin/eosin (H&E) and picrosirius red. IBA1 (ionized calcium-binding adapter molecule 1)-positive crown-like structures (Abcam, ab178846), Ly6b (BioRad, MCA771), UCP-1 (Abcam, ab109839) or ZO-1 (Invitrogen, 14-9776-80) were stained (Ventana Discovery XT) followed by digital (Aperio ScanScope XT, Leica Biosystems) and automated image analysis (HALO, Indica Labs).

[2] = tested on: NASH patients; conditions: cited from earlier work
[3] = tested on: healthy volunteers; conditions: cited from earlier work
[4] = tested on: patients with biopsy-proven NASH and fibrosis stages 2-3
From the text: Prespecified endpoints assessed at week 12 included overall safety and changes in alanine aminotransferase (ALT), hepatic fat fraction (HFF), gamma glutamyl transferase (GGT), and body weight.

[5] = tested on: NASH patients
[6] = tested on: NASH patients; conditions: cited from earlier work; remark: listed apart in the source
[7] = GS-0976 10 mg/kg p.o. once daily for 12 weeks, HF/NASH diet

## COc1ccccc1[C@H](Cn1c(=O)n(C(C)(C)C(=O)O)c(=O)c2c(C)c(-c3ncco3)sc21)OC1CCOCC1 [GS-0976, 2-[1-{(2R)-2-(2-methoxyphenyl)-2-[(oxan-4-yl)oxy]ethyl}-5-methyl-6-(1,3-oxazol-2-yl)-2,4-dioxo-1,4-dihydrothieno[2,3-d]pyrimidin-3(2H)-yl]-2-methylpropanoic acid]
[1]; [7]
  elevation of circulating leptin levels vs vehicle: 2 fold
  increase in total fat mass vs vehicle: 27%
  increase in visceral and subcutaneous fat vs vehicle: 30%
[1]; GS-0976 10 mg/kg p.o. once daily, end of 12-week treatment, HF/NASH diet
  mean body weight above vehicle-treated mice: 7%
[1]; GS-0976 10 mg/kg, liver transcriptome
  liver gene expression (lipid metabolism genes): induced multiple genes known to play roles in lipid metabolism
[1]; NASH mice, 12-week treatment
  effect on blood triglycerides and peripheral obesity: elevated blood triglycerides and peripheral obesity
[1]; chronic treatment, HF/NASH diet, vs vehicle
  body weight effect (in words): significant increase in body weight
[1]; p.o. once daily for 12 weeks after 20 weeks of HF/NASH diet
  effect of therapeutic treatment on established NASH with fibrosis: resolved established NASH with fibrosis
[2]; NASH patients
  plasma triglycerides (TG): Hypertriglyceridemia; also recorded: elevated plasma triglycerides
[2]; NASH subjects
  steatosis and MRI-PDFF in NASH subjects: improve steatosis and improvements in MRI-PDFF
[2]; clinical phase 2 NASH studies, 12 weeks
  liver fat, serum TIMP-1 and liver injury: reductions in liver fat, serum TIMP-1, and liver injury

## COc1cc(C(=O)N2CCC3(CC2)CC(=O)c2cc(-c4cncc(C(=O)O)c4)ccc2O3)cc2c1c(C)cn2C1CC1 [MK-4704]
[3]
  plasma triglycerides: Hypertriglyceridemia

## O=C(O)c1cc(F)c2nc(N3C4CCC3CC(OCc3c(-c5ccccc5OC(F)(F)F)noc3C3CC3)C4)sc2c1 [Tropifexor, 2-[(1R,3r,5S)-3-({5-cyclopropyl-3-[2-(trifluoromethoxy)phenyl]-1,2-oxazol-4-yl}methoxy)-8-azabicyclo[3.2.1]octan-8-yl]-4-fluoro-1,3-benzothiazole-6-carboxylic acid]
[4]; 140 μg and 200 μg vs placebo
  frequency of serious adverse events: low and comparable across groups
[4]; 140 μg and 200 μg, 12 weeks
  low density lipoprotein-cholesterol (LDL-C): dose-related increase
[4]; Tropifexor 140 μg
  treatment discontinuation rate due to pruritus: 2%
[4]; Tropifexor 140 μg once daily
  ALT, LS mean absolute change (SE) from baseline to Week 12: −20.1 (4.57) U/L
  Body weight, LS mean absolute change (SE) from baseline to Week 12: −2.46 (0.38) kg
  GGT, LS mean absolute change (SE) from baseline to Week 12: −39.2 (3.70) U/L
[4]; Tropifexor 200 μg
  pre-specified endpoints at week 12: Pre-specified endpoints were met
  treatment discontinuation rate due to pruritus: 6%
[4]; Tropifexor 200 μg once daily
  ALT, LS mean absolute change (SE) from baseline to Week 12: −23.6 (4.48) U/L
  Body weight, LS mean absolute change (SE) from baseline to Week 12: −3.20 (0.37) kg
  GGT, LS mean absolute change (SE) from baseline to Week 12: −40.9 (3.62) U/L
[4]; both Tropifexor groups (140 μg and 200 μg)
  share of patients with pruritus whose events were of mild (Grade 1) severity: > 60%
[4]; higher doses (140 μg and 200 μg)
  ALT, HFF and body weight after 12 weeks (in words): robust and dose-dependent decreases
[5]; 60 and 90 μg
  efficacy based on biomarkers at Week 12: anti-inflammatory and anti-steatotic efficacy
[5]; up to 90 μg daily
  tolerability: generally well tolerated up to 90 μg daily without safety signals

## CC[C@H]1[C@@H](O)[C@@H]2[C@H](CC[C@]3(C)[C@@H]([C@H](C)CCC(=O)O)CC[C@@H]23)[C@@]2(C)CC[C@@H](O)C[C@@H]12 [obeticholic acid, 6α-ethyl-chenodeoxycholic acid]
[6]
  adverse effects of long term administration: associated with pruritus and lipid abnormalities
